How the values were obtained:
[1] = tested on: breast cancer PDX Ma15169; details: for tumor growth inhibition / therapeutic effect (in words): Ma15169 PDX, humanized NOG-EXL mice, treatment day 154-182; for T/C value (treated-to-control tumor volume) at the last day of the study: day 183, Paclitaxel 10 mg/kg i.v. twice weekly, treatment from day 154, 29 days; for response rating according to RECIST criteria: from T/C at day 183 (last day of the study)
Protocol: The study was designed to determine the response of the breast cancer PDX Ma15169 to treatment with Paclitaxel single agent, Balixafortide single agent and the combination of both in humanized NOG-EXL mice. Humanized NOG-EXL mice bearing the breast cancer PDX Ma15169 were treated with Paclitaxel and Balixafortide according to Table 1. Ma15169 is a patient derived xenograft (PDX) that was from a patient with an invasive ductal carcinoma (ypT1a ypN1a R0 G3 L1 V1). The patient tumour was ER/PR as well as Her-2 negative. The tumour material was expanded in 9 donor mice (NOG, Taconic; https://www.taconic.com/mouse-model/ciea-nog-mouse) and fragments of about 10 mm3 were each implanted subcutaneously into the flank of 50 humanized NOG-EXL mice; at this time, the passage number of Ma15169 was #4.
Female NOG-EXL mice with an age of about 4 weeks were used for the constitution of human immune cells. 24 hours before CD34+ cell inoculation mice were irradiated with 1Gy. Human CD34+ cells were isolated from fresh cord blood within the laboratories of EPO (Experimental Pharmacology & Oncology Berlin-Buch GmbH, Berlin-Buch, Germany) and preserved in liquid nitrogen until use. For the study MV16883 a pool of 5 different donors (CB AG 101, CB AG 97, CB KR 104, CB AG 106, CB AG 107) prepared. After thawing the cells were washed with PBS, pooled and washed again followed by Trypan blue staining and cell counting using Neubauer chamber. A total of 5×10^4 vital cells were resuspended in 200 μl PBS and injected intravenously into the tail vain of all mice.
Determination of human immune cells by FACS was performed at days 46, 84 and 115 after cell inoculation (leucocytes CD45+, B cells CD19+, T cells CD3+, NK cells CD56+/CD16+ and monocytes CD14+; Human Immunophenotyping 8-color-Kit (Miltenyi)). The mice were weighed weekly and monitored for general health two times weekly.
The PDX Ma15169 is maintained by EPO (Experimental Pharmacology & Oncology Berlin-Buch GmbH, Berlin-Buch, Germany) as in vivo passage; the passage number for this study was #4. Donor mice (female NOG; Taconic) with tumors of about 1 cm3 were used for the preparation of this study MV16883.
After removal of the tumor tissue from donor mice, the tumors were cut into fragments (2-3 mm diameter—approximately 10 mm3) and placed in cooled RPMI 1640 culture medium until s.c. implantation within 30 minutes. The humanized NOG-EXL mice were anaesthetized with Etomidate and received a small incision in the skin of the left flank. The tumor fragments (one fragment/mouse) were implanted with tweezers and the incision closed with a suture clip (#310417, Covetrus GmbH). The clips were removed after seven days and mice controlled two times weekly by means of palpation. The implantation of tumor fragments was performed 122 days after the inoculation of CD34+ cells.
Tumor bearing mice were stratified into 4 treatment groups according to their tumor volumes at day 154 post CD34+ cell inoculation (32 days after tumor implantation). […] During stratification the animals were individually marked by earmarks.
Paclitaxel (Taxomedac™ comprising paclictaxel, citric acid, ethanol and PEG (30-50) castor oil) was given i.v. at a dose of 10 mg/kg twice weekly. Balixafortide was given s.c. at a dose of 20 mg/kg once daily for the first 5 days and twice daily for 5 days followed by treatment breaks of 2 days until the end of treatment period (FIG. 1). Total treatment duration was 29 days. Successful engraftment of human CD34+ cells was checked by flow cytometry (FACS).
Changes in the human immune cell population in blood were followed-up at the end of the study by FACS analysis.

[2] = target: human CXCR4 receptor (Homo sapiens, UniProt P61073); test: In vitro receptor binding studies, human CXCR4 receptor
Chain of human CXCR4 receptor (P61073 whole entry): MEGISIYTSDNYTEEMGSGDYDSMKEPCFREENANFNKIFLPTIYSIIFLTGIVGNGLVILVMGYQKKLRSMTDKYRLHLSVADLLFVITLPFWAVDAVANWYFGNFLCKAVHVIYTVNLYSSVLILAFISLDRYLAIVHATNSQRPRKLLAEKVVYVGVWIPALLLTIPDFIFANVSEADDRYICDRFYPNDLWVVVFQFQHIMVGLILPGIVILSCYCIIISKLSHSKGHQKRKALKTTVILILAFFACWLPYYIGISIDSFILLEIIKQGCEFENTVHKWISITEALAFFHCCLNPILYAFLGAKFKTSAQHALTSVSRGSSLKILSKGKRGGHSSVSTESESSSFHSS

[3] = tested on: other potential target receptors; test: In vitro receptor binding studies, other receptors

Row | Molecule | tumor growth inhibition / therapeutic effect (in words) [1] | T/C value (treated-to-control tumor volume) at the last day of the study ([1]; Balixafortide 20 mg/kg s.c.) [%] | response rating according to RECIST criteria [1] | optimum T/C value ([1]; found at day 168, Balixafortide 20 mg/kg s.c., p>0.05) [%] | affinity for the human CXCR4 receptor (in words) [2] | binding to other potential target receptors (in words) [3]
1 | CC(=O)O[C@H]1C(=O)[C@@]2(C)[C@H]([C@H](OC(=O)c3ccccc3)[C@]3(O)C[C@H](OC(=O)[C@H](O)[C@@H](NC(=O)c4ccccc4)c4ccccc4)C(C)=C1C3(C)C)[C@]1(OC(C)=O)CO[C@@H]1C[C@@H]2O [Paclitaxel, reference compound] | significant tumor growth inhibition | 42 | stable disease |  |  | 
2 | Cyclo(-Tyr-His-Ala-Cys-Ser-Ala-^DPro-Dab-Arg-Tyr-Cys-Tyr-Gln-Lys-^DPro-Pro-) having a disulfide bond between Cys^4 and Cys^11 [Balixafortide] | inhibited tumor growth marginally | 107 | progressive disease | 79 | significant affinity | general lack of significant binding

From patent US20240009266A1, “PHARMACEUTICAL COMBINATIONS COMPRISING A PEPTIDE CXCR4 INHIBITOR AND A TAXANE FOR TREATING CANCER” (POLYPHOR AG, priority 2020, published 2024)
